Reference: patent US7166299B2, “Preparation of aqueous clear solution dosage forms with bile acids” (priority 1998, dated 2007)
Values joined by “and” are separate entries in the source; they are usually repeats but may differ in a detail not shown here. Equal entries are not always repeated.

Test: Solution stability test (HPLC) of UDCA, branched chained amino acids and maltodextrin solution, Example IV
Type: physicochemical
Protocol: The stability tests were conducted on three different aqueous solution systems: […]. A bile acid and a high molecular weight aqueous soluble starch conversion product were combined in aqueous solution according to Example I, with results as shown in Tables 1A and 1B. • 2. Mixed bile acids and high molecular weight aqueous soluble starch conversion products were combined in aqueous solution according to Example II, with results as shown in Table 2. • 3. Bile acids, high molecular weight aqueous soluble starch conversion products and branched chained amino acids (e.g. leucine, isoleucine, valine, or other amino acid with a branched side chain) were combined in aqueous solution according to Example IV, with results as shown in Tables 3A through 3F. The stability tests were performed with HPLC and microscope light at various pH conditions under the normal and accelerated conditions. Accelerated conditions for testing pharmaceutical compositions have been described (Remington, The Science and Practice of Pharmacy, 19th ed., p. 640). […] Thus, the formulations of the examples are suitable for preparing a commercial liquid dosage form. […] Some formulations remain stable for over 2 years. Moreover, the solution stability tests were conducted on the aqueous solution dosage forms comprising the mixture of aqueous soluble UDCA, branched chained amino acid (leucine, isoleucine, valine) and maltodextrin according to example IV as a typical example of the solution dosage forms in which bile acid as a therapeutically active agent, as an adjuvant or carrier, pharmaceutically active agent, or enhancer of solubility, and high molecular weight aqueous soluble starch conversion products or soluble non-starch polysaccharides are dissolved. According to the test results, there is no discoloration, no clarity changes, and no precipitation. […] In the tables, the concentration of the indicated bile acid salt for each of the three numbered trials and the average thereof is reported on each line. The percentage indicates the relative concentration of the bile acid salt after incubation for a certain amount of time in comparison with the initial concentration. 85 mL of the aqueous solution in which soluble UDCA is dissolved was prepared, and then maltodextrin was added into the clear solution. Into the resulting clear solution, branched amino acids were added with adjusting the pH (4–7) with agitation and then sweetener, preservatives, and flavoring agent were added. Purified water was added to adjust the total volume to be 100 mL. Tables 3A to 3F show stability test results over time of formulation prepared with amino acids according to Example IV. All stability tests were conducted at 50° C. Stability test results at pH 1 (Table 3A), pH 3 (Table 3B), pH 5 (Table 3C), pH 7 (Table 3D), pH 9 (Table 3E), and pH 10 (Table 3F) are shown.

CC(C)[C@H](N)C(=O)O [Val, valine]
concentration by HPLC, trials #1-#3 (Table 3C: pH 5, 50° C., day 13): 0.464 and 0.451 and 0.474 | Percentage of day 0 concentration (Table 3C: pH 5, 50° C., day 17): 93.0% | concentration by HPLC, Average (Table 3C: pH 5, 50° C., day 17): 0.453 | concentration by HPLC, trials #1-#3 (Table 3C: pH 5, 50° C., day 17): 0.407 and 0.491 and 0.462 | Percentage of day 0 concentration (Table 3C: pH 5, 50° C., day 20): 99.9% | concentration by HPLC, Average (Table 3C: pH 5, 50° C., day 20): 0.487 | concentration by HPLC, trials #1-#3 (Table 3C: pH 5, 50° C., day 20): 0.471 and 0.512 and 0.477 | Percentage of day 0 concentration (Table 3C: pH 5, 50° C., day 24): 96.1% | concentration by HPLC, Average (Table 3C: pH 5, 50° C., day 24): 0.468 | concentration by HPLC, trials #1-#3 (Table 3C: pH 5, 50° C., day 24): 0.471 and 0.476 and 0.458 | Percentage of day 0 concentration (Table 3D: pH 7, 50° C., day 0): 100.0% | concentration by HPLC, Average (Table 3D: pH 7, 50° C., day 0): 0.513 | concentration by HPLC, trials #1-#3 (Table 3D: pH 7, 50° C., day 0): 0.483 and 0.530 and 0.525 | Percentage of day 0 concentration (Table 3D: pH 7, 50° C., day 5): 94.1% | concentration by HPLC, Average (Table 3D: pH 7, 50° C., day 5): 0.483 | concentration by HPLC, trials #1-#3 (Table 3D: pH 7, 50° C., day 5): 0.502 and 0.447 and 0.499 | Percentage of day 0 concentration (Table 3D: pH 7, 50° C., day 8): 96.2% | concentration by HPLC, Average (Table 3D: pH 7, 50° C., day 8): 0.493 | concentration by HPLC, trials #1-#3 (Table 3D: pH 7, 50° C., day 8): 0.488 and 0.498 and 0.493 | Percentage of day 0 concentration (Table 3D: pH 7, 50° C., day 12): 91.2% | concentration by HPLC, Average (Table 3D: pH 7, 50° C., day 12): 0.467 | concentration by HPLC, trials #1-#3 (Table 3D: pH 7, 50° C., day 12): 0.490 and 0.469 and 0.443 | Percentage of day 0 concentration (Table 3D: pH 7, 50° C., day 15): 95.9% | concentration by HPLC, Average (Table 3D: pH 7, 50° C., day 15): 0.492 | concentration by HPLC, trials #1-#3 (Table 3D: pH 7, 50° C., day 15): 0.492 and 0.541 and 0.442 | Percentage of day 0 concentration (Table 3D: pH 7, 50° C., day 19): 93.6% | concentration by HPLC, Average (Table 3D: pH 7, 50° C., day 19): 0.480 | concentration by HPLC, trials #1-#3 (Table 3D: pH 7, 50° C., day 19): 0.458 and 0.500 and 0.482 | Percentage of day 0 concentration (Table 3E: pH 9, 50° C., day 0): 100.0% | concentration by HPLC, Average (Table 3E: pH 9, 50° C., day 0): 0.489 | concentration by HPLC, trials #1-#3 (Table 3E: pH 9, 50° C., day 0): 0.508 and 0.476 and 0.484 | Percentage of day 0 concentration (Table 3E: pH 9, 50° C., day 3): 97.8% | concentration by HPLC, Average (Table 3E: pH 9, 50° C., day 3): 0.478 | concentration by HPLC, trials #1-#3 (Table 3E: pH 9, 50° C., day 3): 0.463 and 0.487 and 0.485 | Percentage of day 0 concentration (Table 3E: pH 9, 50° C., day 6): 99.5% | concentration by HPLC, Average (Table 3E: pH 9, 50° C., day 6): 0.487 | concentration by HPLC, trials #1-#3 (Table 3E: pH 9, 50° C., day 6): 0.493 and 0.473 and 0.495 | Percentage of day 0 concentration (Table 3E: pH 9, 50° C., day 10): 91.3% | concentration by HPLC, Average (Table 3E: pH 9, 50° C., day 10): 0.447 | concentration by HPLC, trials #1-#3 (Table 3E: pH 9, 50° C., day 10): 0.441 and 0.428 and 0.471 | Percentage of day 0 concentration (Table 3E: pH 9, 50° C., day 13): 101.3% | concentration by HPLC, Average (Table 3E: pH 9, 50° C., day 13): 0.496 | concentration by HPLC, trials #1-#3 (Table 3E: pH 9, 50° C., day 13): 0.467 and 0.483 and 0.537 | Percentage of day 0 concentration (Table 3E: pH 9, 50° C., day 17): 101.8% | concentration by HPLC, Average (Table 3E: pH 9, 50° C., day 17): 0.498 | concentration by HPLC, trials #1-#3 (Table 3E: pH 9, 50° C., day 17): 0.499 | Percentage of day 0 concentration (Table 3F: pH 10, 50° C., day 0): 100.0% | concentration by HPLC, Average (Table 3F: pH 10, 50° C., day 0): 0.486 | Percentage of day 0 concentration (Table 3F: pH 10, 50° C., day 2): 104.2% | concentration by HPLC, Average (Table 3F: pH 10, 50° C., day 2): 0.506 | Percentage of day 0 concentration (Table 3F: pH 10, 50° C., day 5): 83.5% | concentration by HPLC, Average (Table 3F: pH 10, 50° C., day 5): 0.405 | Percentage of day 0 concentration (Table 3F: pH 10, 50° C., day 7): 81.8% | concentration by HPLC, Average (Table 3F: pH 10, 50° C., day 7): 0.397 | Percentage of day 0 concentration (Table 3F: pH 10, 50° C., day 9): 75.8% | concentration by HPLC, Average (Table 3F: pH 10, 50° C., day 9): 0.368
